According to patent US20160177259A1, “[…]” (Evonik Degussa GmbH, priority 2014, published 2016):

Tested on: Clostridium ljungdahlii
Experiment: Formation of acetic acid and ethanol from synthesis gas in CGF1 mineral medium with refeeding of cysteine (Example 3)
Type: cell-based
Description: For the biotransformation of hydrogen and carbon dioxide to acetic acid and ethanol the homoacetogenic bacterium Clostridium ljungdahlii was cultivated on synthesis gas with refeeding of cysteine. All cultivation steps were carried out under anaerobic conditions in pressure-resistant glass bottles that can be closed airtight with a butyl rubber stopper.
The chemolithoautotrophic cultivation was carried out in a 1 L pressure-resistant glass bottle at 37° C., 100 rpm and a ventilation rate of 3 L/h with a premixed gas with 67% H2, 33% CO2 in an open water bath shaker for 69 h till OD600nm>0.4. The gas was discharged into the medium through a sparger with a pore size of 10 μm, which was mounted in the center of the reactors. Then the cell suspension was centrifuged and the cell pellet was resuspended in fresh CGF1 mineral medium as disclosed below.
For the production phase, as many washed cells from the preculture of C. ljungdahlii as necessary for an OD600nm of 0.2 were added to 100 ml mineral medium (CGF1 medium, pH 6.5, 1.4 g/L KOH, 2 g/L (NH4)2SO4, 1 g/L KH2PO4, 1 g/L K2HPO4, 10 mg/L FeSO4 X 7 H2O, 3.8 mg/L MnSO4 X 1 H2O, 246 mg/L MgSO4×7 H2O, aerated for 30 min with a premixed gas with 67% H2 and 33% CO2). […] The cultivation was carried out in 500 mL pressure-resistant glass bottles at 37° C., 150 rpm in an open water bath shaker for 163 h which were aerated to an overpressure of 0.8 bar with a premixed gas with 67% H2, 33% CO2 one time a day. The pH was held >5.0 by intermittent additions of a 140 g/L KOH solution. During the cultivation several 5 mL samples were taken to determinate OD600nm, pH and product formation. […] The determination of the product concentrations including the L-Cysteine concentration was performed by semiquantitative ^1H-NMR spectroscopy. As an internal quantification standard sodium trimethylsilylpropionate (T(M)SP) was used.

[1] = culture A, 400 mg/L L-cysteine-hydrochloride at start, no refeed, 0 h
[2] = culture A, 400 mg/L L-cysteine-hydrochloride at start, no refeed, 18.75 h
[3] = culture A, 400 mg/L L-cysteine-hydrochloride at start, no refeed, 41.5 h
[4] = culture A, 400 mg/L L-cysteine-hydrochloride at start, no refeed, 46.75 h
[5] = culture A, 400 mg/L L-cysteine-hydrochloride at start, no refeed, 65.5 h
[6] = culture A, 400 mg/L L-cysteine-hydrochloride at start, no refeed, 69.5 h
[7] = culture A, 400 mg/L L-cysteine-hydrochloride at start, no refeed, 89.75 h
[8] = culture A, 400 mg/L L-cysteine-hydrochloride at start, no refeed, 163.5 h
[9] = culture B, 200 mg/L L-cysteine-hydrochloride at start, no refeed, 0 h
[10] = culture B, 200 mg/L L-cysteine-hydrochloride at start, no refeed, 18.75 h
[11] = culture B, 200 mg/L L-cysteine-hydrochloride at start, no refeed, 41.5 h
[12] = culture B, 200 mg/L L-cysteine-hydrochloride at start, no refeed, 46.75 h
[13] = culture B, 200 mg/L L-cysteine-hydrochloride at start, no refeed, 65.5 h
[14] = culture B, 200 mg/L L-cysteine-hydrochloride at start, no refeed, 69.5 h
[15] = culture B, 200 mg/L L-cysteine-hydrochloride at start, no refeed, 89.75 h
[16] = culture B, 200 mg/L L-cysteine-hydrochloride at start, no refeed, 163.5 h
[17] = culture C, 200 mg/L L-cysteine-hydrochloride at start, re-fed 200 mg/L after 18, 41, 65, 89 h, 0 h
[18] = culture C, 200 mg/L L-cysteine-hydrochloride at start, re-fed 200 mg/L after 18, 41, 65, 89 h, 18.75 h
[19] = culture C, 200 mg/L L-cysteine-hydrochloride at start, re-fed 200 mg/L after 18, 41, 65, 89 h, 41.5 h
[20] = culture C, 200 mg/L L-cysteine-hydrochloride at start, re-fed 200 mg/L after 18, 41, 65, 89 h, 46.75 h
[21] = culture C, 200 mg/L L-cysteine-hydrochloride at start, re-fed 200 mg/L after 18, 41, 65, 89 h, 65.5 h
[22] = culture C, 200 mg/L L-cysteine-hydrochloride at start, re-fed 200 mg/L after 18, 41, 65, 89 h, 69.5 h
[23] = culture C, 200 mg/L L-cysteine-hydrochloride at start, re-fed 200 mg/L after 18, 41, 65, 89 h, 89.75 h
[24] = culture C, 200 mg/L L-cysteine-hydrochloride at start, re-fed 200 mg/L after 18, 41, 65, 89 h, 95.5 h
[25] = culture C, 200 mg/L L-cysteine-hydrochloride at start, re-fed 200 mg/L after 18, 41, 65, 89 h, 163.5 h

Cl.N[C@@H](CS)C(=O)O [L-Cysteine-HCl, L-cysteine hydrochloride]
Acetate [1]: 34.0 mg/L | Ethanol [1]: 2.0 mg/L | OD (600 nm) [1]: 0.206 | Acetate [2]: 1400.0 mg/L | Ethanol [2]: 60.0 mg/L | OD (600 nm) [2]: 0.232 | Acetate [3]: 2550 mg/L | Ethanol [3]: 420 mg/L | OD (600 nm) [3]: 0.293 | Acetate [4]: 2700 mg/L | Ethanol [4]: 480 mg/L | OD (600 nm) [4]: 0.281 | Acetate [5]: 3500 mg/L | Ethanol [5]: 580 mg/L | OD (600 nm) [5]: 0.324 | Acetate [6]: 3700 mg/L | Ethanol [6]: 650 mg/L | OD (600 nm) [6]: 0.366 | Ethanol [7]: 580.0 mg/L | OD (600 nm) [7]: 0.324 | Acetate [8]: 6100.0 mg/L | Ethanol [8]: 670.0 mg/L | OD (600 nm) [8]: 0.339 | Acetate [9]: 35.0 mg/L | Ethanol [9]: 1.9 mg/L | OD (600 nm) [9]: 0.197 | Acetate [10]: 1400.0 mg/L | Ethanol [10]: 100.0 mg/L | OD (600 nm) [10]: 0.261 | Acetate [11]: 2150 mg/L | Ethanol [11]: 580 mg/L | OD (600 nm) [11]: 0.279 | Acetate [12]: 2200 mg/L | Ethanol [12]: 630 mg/L | OD (600 nm) [12]: 0.269 | Acetate [13]: 2200 mg/L | Ethanol [13]: 600 mg/L | OD (600 nm) [13]: 0.271 | Acetate [14]: 2200 mg/L | Ethanol [14]: 590 mg/L | OD (600 nm) [14]: 0.259 | Acetate [15]: 2350.0 mg/L | Ethanol [15]: 560.0 mg/L | OD (600 nm) [15]: 0.241 | Acetate [16]: 2550.0 mg/L | Ethanol [16]: 570.0 mg/L | OD (600 nm) [16]: 0.237 | cell growth (culture C (re-fed) compared with cultures A and B): stronger cell growth | concentrations of acetate and ethanol (culture C (re-fed) compared with cultures A and B, production phase): increased more | Acetate [17]: 27.0 mg/L | Ethanol [17]: 2.0 mg/L | OD (600 nm) [17]: 0.209 | Acetate [18]: 1400.0 mg/L | Ethanol [18]: 85.0 mg/L | OD (600 nm) [18]: 0.245 | Acetate [19]: 3000 mg/L | Ethanol [19]: 510 mg/L | OD (600 nm) [19]: 0.339 | Acetate [20]: 3250 mg/L | Ethanol [20]: 580 mg/L | OD (600 nm) [20]: 0.335 | Ethanol [21]: 790 mg/L | OD (600 nm) [21]: 0.399 | Ethanol [22]: 860 mg/L | OD (600 nm) [22]: 0.392 | Acetate [23]: 5000.0 mg/L | Ethanol [23]: 810.0 mg/L | OD (600 nm) [23]: 0.431 | Acetate [24]: 5600.0 mg/L | Ethanol [24]: 880.0 mg/L | OD (600 nm) [24]: 0.434 | Acetate [25]: 7700.0 mg/L | Ethanol [25]: 960.0 mg/L | OD (600 nm) [25]: 0.481
